{"source": "paper PMC11192711", "about": "“Automated radiosynthesis and preclinical evaluation of two new PSMA-617 derivatives radiolabelled via [^18F]AlF^2+ method” (EJNMMI Radiopharmacy and Chemistry, 2024)", "key": {"[1]": {"test_system": "LNCaP tumour-bearing NSG mice", "assay": "PET/CT in vivo biodistribution and tumour uptake in subcutaneous LNCaP prostate cancer xenograft model", "settings": "n = 4; for Bone (SUV mean) / Brain (SUV mean) / Colon (SUV mean) / Gall bladder (SUV mean) / Heart (SUV mean) / Kidney (SUV mean) / Liver (SUV mean) / Lung (SUV mean) / Muscle (SUV mean) / Salivary gland (SUV mean) / Small instestine (SUV mean): LNCaP NSG male mice, i.v., PET/CT; for ratio between tumour and muscle (tumour SUV max/muscle SUV mean) / uptake in the tumour expressed as SUV max: LNCaP tumour, NSG mice", "method": "The uptake of [^18F]F-PSMA-1007 and [^18F]F-PSMA-617-NODA ([^18F]1) was compared in vivo in a xenograft model of human prostate cancer obtained using LNCaP cells which are PSMA positive, as confirmed by real time PCR-analysis (Additional file 1: S69A). LNCaP tumour-bearing NSG mice were injected i.v. with either [^18F]F-PSMA-1007 or [^18F]F-PSMA-617-NODA (~ 3.8 MBq/mouse, ~ 20 pmol for [^18F]F-PSMA-1007 and ~ 50 pmol [^18F]1). Radiotracer uptake was assessed after 10, 60 and 120 min post injection by whole-body PET/CT acquisitions.\nTotal body biodistribution of [^18F]F-PSMA-1007, [^18F]F-PSMA-617-NODA and [^18F]F-PSMA-617-RESCA was evaluated in vivo using imaging PET/CT. [^18F]F-PSMA-617-NODA uptake was compared to that of the [^18F]F-PSMA-1007 in a PSMA positive prostate tumour xenograft model (LNCaP). [^18F]F-PSMA-617-NODA and [^18F]F-PSMA-617-RESCA uptake were also evaluated using an orthotopic glioma model (Gli36ΔEGFR).\nAnimal experiments were carried out in compliance with institutional guidelines for the care and the use of experimental animals, which have been authorized by the Italian Ministry of Health (n° 378/2019-PR and 817/2021-PR). The animals were housed at constant temperature (23 °C) and relative humidity (40%) under a regular light/dark cycle with food and water available ad libitum. Seven to eight weeks old male NSG mice (Charles River Laboratories Italia s.r.l., Italy) were subcutaneously inoculated in the right flank with 5 × 10^6 of PSMA‐positive human prostate cancer cells (LNCaP) suspended in matrigel (1: 1, total volume 200 ul). The growth tumour was monitored periodically with calliper and tumour volume was calculated using the following formula: […]\nWhen the tumour volume was about 230.8 ± 60.3 mm^3 (approximately 15 days after tumour cells inoculation), 4 animals performed an in vivo biodistribution of [^18F]F-PSMA-1007 and [^18F]F-PSMA-617-NODA, on successive but non-consecutive days, using PET/CT.\nMice were injected into a tail vein with 3.8 ± 0.1 MBq of [^18F]F-PSMA-1007, 4.0 ± 0.2 MBq of [^18F]F-PSMA-617-NODA ([^18F]1) and 3.8 ± 0.1 MBq of [^18F]F-PSMA-617-RESCA ([^18F]2), respectively.\nTotal body PET/CT acquisitions were performed using PET/CT tomographs dedicated to small animals, X-ß-CUBE (Molecubes, Gent, Belgium) after 10, 60 and 120 min from tracer injection. Each acquisition lasted 30 min and mice were maintained anesthetized (4% isoflurane in induction and 2% in maintenance in air) during acquisition.\nImage quantification analysis was performed with PMOD 4.105 software (Zurich, Switzerland). Volumes of interest (VOIs) were drawn on peripheral organs (tumour, thoracic muscle, heart, liver, kidney, salivary glands, lung, small intestine, colon, bone, gall bladder) and on the healthy brain using CT images. For the glioma model, PET/CT images were co-registered to MRI images and two different VOIs were defined: (1) a control VOI covering the healthy left striatum (volume 4 mm^3) was drawn on the axial MR images, adjusted on the other imaging planes and then copied on the PET images of each mouse; (2) a second glioma-covering VOI was drawn in the tumour-affected brain hemisphere and centered on mice lesions.\nFor quantification, Standardized Uptake Value (SUV) was calculated according to the formula:\nSUV = organ concentration activity [MBq/g]/(injected activity [MBq]/animal weight [g]).\nThe data were expressed as standardized-uptake-values (SUVmean and SUVmax) and as tumour-to-muscle (T/M) and tumour-to-blood (T/B) ratio in PCa model and as tumour-to-contralateral (T/Cl) ratio in glioma model."}, "[2]": {"assay": "Stability in human plasma (HPLC, radio-TLC, pellet/supernatant activity)", "format": "in vitro ADME", "settings": "for Stability in human plasma: 37 °C, up to 4 h, HPLC and radio-TLC; for Pellet activity / Supernatant activity: ACN precipitation", "method": "Stability in plasma was evaluated mixing aliquots of [^18F]1 or [^18F]2 solutions (10 MBq for 2 h incubation and 20 MBq for 4 h incubation samples) with 200 µL of human serum. The mixtures were incubated at 37 °C. Aliquots were taken at 2 h and 4 h. Plasma pellet was precipitated with 200 µL acetonitrile and centrifuged (13,500 rpm, 10 min). The supernatant was removed, and the activity of the supernatant solution and pellet was measured using a dose calibrator (VIK-202 Comecer). The supernatant solution was analyzed injecting in RP-HPLC (diluted 1:5 in water) and Radio-TLC as above described."}, "[3]": {"settings": "[18F]1, 2 h incubation in plasma, total activity incubated 3.6 MBq"}, "[4]": {"settings": "[18F]1, 4 h incubation in plasma, total activity incubated 3.89 MBq"}}}
{"smiles": "O=C(O)CCC(NC(=O)NC(CCCCNC(=O)C(Cc1ccc2ccccc2c1)NC(=O)C1CCC(CNC(=O)CCCN2CCN(CC(=O)O)CCN(CC(=O)O)CC2)CC1)C(=O)O)C(=O)O.[18F][Al]", "note": "[[^18F]F-PSMA-617-NODA, (((S)-5-((S)-2-((1R,4S)-4-((4-(4,7-bis(carboxymethyl)-1,4,7-triazonan-1-yl)butanamido)methyl)cyclohexane-1-carboxamido)-3-(naphthalen-2-yl)propanamido)-1-carboxypentyl)carbamoyl)-L-glutamic acid [^18F] aluminium fluoride]", "values": [{"measurement": "Bone (SUV mean)", "setting": "[1]; 10 min p.i.", "value": "0.20 ± 0.12"}, {"measurement": "Brain (SUV mean)", "setting": "[1]; 10 min p.i.", "value": "0.05 ± 0.003"}, {"measurement": "Colon (SUV mean)", "setting": "[1]; 10 min p.i.", "value": "0.30 ± 0.08"}, {"measurement": "Gall bladder (SUV mean)", "setting": "[1]; 10 min p.i.", "value": "0.27 ± 0.05"}, {"measurement": "Heart (SUV mean)", "setting": "[1]; 10 min p.i.", "value": "0.30 ± 0.03"}, {"measurement": "Kidney (SUV mean)", "setting": "[1]; 10 min p.i.", "value": "8.50 ± 1.40"}, {"measurement": "Liver (SUV mean)", "setting": "[1]; 10 min p.i.", "value": "0.22 ± 0.02"}, {"measurement": "Lung (SUV mean)", "setting": "[1]; 10 min p.i.", "value": "0.31 ± 0.04"}, {"measurement": "Muscle (SUV mean)", "setting": "[1]; 10 min p.i.", "value": "0.15 ± 0.05"}, {"measurement": "Salivary gland (SUV mean)", "setting": "[1]; 10 min p.i.", "value": "0.49 ± 0.05"}, {"measurement": "Small instestine (SUV mean)", "setting": "[1]; 10 min p.i.", "value": "0.23 ± 0.05"}, {"measurement": "Bone (SUV mean)", "setting": "[1]; 60 min p.i.", "value": "0.23 ± 0.11"}, {"measurement": "Brain (SUV mean)", "setting": "[1]; 60 min p.i.", "value": "0.03 ± 0.01"}, {"measurement": "Colon (SUV mean)", "setting": "[1]; 60 min p.i.", "value": "0.17 ± 0.02"}, {"measurement": "Gall bladder (SUV mean)", "setting": "[1]; 60 min p.i.", "value": "0.14 ± 0.07"}, {"measurement": "Heart (SUV mean)", "setting": "[1]; 60 min p.i.", "value": "0.09 ± 0.02"}, {"measurement": "Kidney (SUV mean)", "setting": "[1]; 60 min p.i.", "value": "6.39 ± 2.14"}, {"measurement": "Liver (SUV mean)", "setting": "[1]; 60 min p.i.", "value": "0.10 ± 0.02"}, {"measurement": "Lung (SUV mean)", "setting": "[1]; 60 min p.i.", "value": "0.14 ± 0.01"}, {"measurement": "Muscle (SUV mean)", "setting": "[1]; 60 min p.i.", "value": "0.04 ± 0.01"}, {"measurement": "Salivary gland (SUV mean)", "setting": "[1]; 60 min p.i.", "value": "0.18 ± 0.08"}, {"measurement": "Small instestine (SUV mean)", "setting": "[1]; 60 min p.i.", "value": "0.16 ± 0.05"}, {"measurement": "Bone (SUV mean)", "setting": "[1]; 120 min p.i.", "value": "0.25 ± 0.12"}, {"measurement": "Brain (SUV mean)", "setting": "[1]; 120 min p.i.", "value": "0.02 ± 0.01"}, {"measurement": "Colon (SUV mean)", "setting": "[1]; 120 min p.i.", "value": "0.13 ± 0.06"}, {"measurement": "Gall bladder (SUV mean)", "setting": "[1]; 120 min p.i.", "value": "0.03 ± 0.02"}, {"measurement": "Heart (SUV mean)", "setting": "[1]; 120 min p.i.", "value": "0.03 ± 0.01"}, {"measurement": "Kidney (SUV mean)", "setting": "[1]; 120 min p.i.", "value": "2.43 ± 1.24"}, {"measurement": "Liver (SUV mean)", "setting": "[1]; 120 min p.i.", "value": "0.04 ± 0.01"}, {"measurement": "Lung (SUV mean)", "setting": "[1]; 120 min p.i.", "value": "0.04 ± 0.01"}, {"measurement": "Muscle (SUV mean)", "setting": "[1]; 120 min p.i.", "value": "0.02 ± 0.01"}, {"measurement": "Salivary gland (SUV mean)", "setting": "[1]; 120 min p.i.", "value": "0.04 ± 0.02"}, {"measurement": "Small instestine (SUV mean)", "setting": "[1]; 120 min p.i.", "value": "0.06 ± 0.03"}, {"measurement": "ratio between tumour and muscle (tumour SUV max/muscle SUV mean)", "setting": "[1]; 60 min p.i.", "value": "30.29 ± 10.46"}, {"measurement": "uptake in the tumour expressed as SUV max", "setting": "[1]; 60 min p.i.", "value": "1.11 ± 0.24"}, {"measurement": "ratio between tumour and muscle (tumour SUV max/muscle SUV mean)", "setting": "[1]; 120 min p.i.", "value": "83.53 ± 48.71"}, {"measurement": "uptake in the tumour expressed as SUV max", "setting": "[1]; 120 min p.i.", "value": "0.94 ± 0.12"}, {"measurement": "Stability in human plasma", "setting": "[2]; listed as [^18F]1", "value": "stable"}, {"measurement": "Stability in human plasma", "setting": "[2]; listed as [^18F]PSMA-617-NODA", "value": "no substantial release of [^18F]AlF^2+"}, {"measurement": "Pellet activity", "setting": "[2]; [3]", "value": 0.4, "unit": "MBq"}, {"measurement": "Supernatant activity", "setting": "[2]; [3]", "value": 3.2, "unit": "MBq"}, {"measurement": "Pellet activity", "setting": "[2]; [4]", "value": 0.45, "unit": "MBq"}, {"measurement": "Supernatant activity", "setting": "[2]; [4]", "value": 3.44, "unit": "MBq"}, {"measurement": "protein uptake", "setting": "[2]; stability tests in human plasma", "value": "~ 11%"}]}
